Results on one molecule are retold here after patent US7897606B2, “5,6-di-substituted oxadiazolopyrazines and thiadiazolopyrazines as CXC-chemokine receptor ligands” (Schering Corporation, priority 2005, dated 2011).

In assay [1] the target is T1, CXCR2 (Homo sapiens, UniProt P25025).
T1 construct: purchased Biosignal; host or cells: CHO cells overexpressing hCXCR2 (membranes)
T1 sequence (P25025 1-360): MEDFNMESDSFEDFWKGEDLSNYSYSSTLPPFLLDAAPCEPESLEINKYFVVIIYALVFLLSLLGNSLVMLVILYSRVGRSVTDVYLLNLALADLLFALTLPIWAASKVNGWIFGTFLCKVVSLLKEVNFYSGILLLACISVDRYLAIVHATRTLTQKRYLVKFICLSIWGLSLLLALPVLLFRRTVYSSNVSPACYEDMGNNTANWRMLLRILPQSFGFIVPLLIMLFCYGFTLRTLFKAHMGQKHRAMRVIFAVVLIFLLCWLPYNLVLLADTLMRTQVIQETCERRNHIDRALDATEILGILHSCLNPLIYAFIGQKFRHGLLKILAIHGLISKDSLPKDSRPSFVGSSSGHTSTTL
Nature of the assay: CXCR2 SPA receptor binding assay. How it is done:
For each well of a 96 well plate, a reaction mixture of 4 μg hCXCR2-CHO overexpressing membranes (Biosignal) and 200 μg/well WGA-SPA beads (Amersham) in 100 μl can be prepared in CXCR2 assay buffer (25 mM HEPES, pH 7.4, 2 mM CaCl2, 1 mM MgCl2). A 0.4 nM stock of ligand, [125I]-IL-8 (NEN), can be prepared in the CXCR2 assay buffer. 20× stock solutions of test compounds can be prepared in DMSO (Sigma). A 6× stock solution of GRO-α (R&D) can be prepared in CXCR2 assay buffer. The above solutions can be added to a 96-well assay plate (PerkinElmer or Corning) as follows: 10 μl test compound or DMSO, 40 ul CXCR2 assay buffer or GRO-α stock, 100 μl of reaction mixture, 50 μl of ligand stock (Final [Ligand]=0.1 nM). When 40× stock solutions of test compounds in DMSO can be prepared, then the above protocol can be used except instead 5 μl test compound or DMSO and 45 μl CXCR2 assay buffer can be used. The assay plates can be shaken for 5 minutes on a plate shaker, then incubated for 2-8 hours before cpm/well can be determined in Microbeta Trilux counter (PerkinElmer). % Inhibition of total binding minus non-specific binding (250 nM Gro-α or 50 μM antagonist) can be determined and IC50 values can be calculated.

The target in assay [2] is T2, CXCR1 (Homo sapiens, UniProt P25024).
T2 construct: purchased Biosignal; host or cells: CHO cells overexpressing hCXCR1 (membranes)
T2 sequence (P25024 1-350): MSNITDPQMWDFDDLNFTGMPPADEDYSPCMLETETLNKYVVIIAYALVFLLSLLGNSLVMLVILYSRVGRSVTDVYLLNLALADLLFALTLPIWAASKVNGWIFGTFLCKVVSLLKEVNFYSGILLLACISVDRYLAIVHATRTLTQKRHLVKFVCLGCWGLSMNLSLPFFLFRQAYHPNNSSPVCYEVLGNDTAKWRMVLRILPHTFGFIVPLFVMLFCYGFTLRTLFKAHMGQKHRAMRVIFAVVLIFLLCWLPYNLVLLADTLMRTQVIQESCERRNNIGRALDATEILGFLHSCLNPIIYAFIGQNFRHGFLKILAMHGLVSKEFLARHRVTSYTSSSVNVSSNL
Nature of the assay: CXCR1 SPA receptor binding assay. On the procedure: For each well of a 96 well plate, a reaction mixture of 10 μg hCXCR1-CHO overexpressing membranes (Biosignal) and 200 μg/well WGA-SPA beads (Amersham) in 100 μl can be prepared in CXCR1 assay buffer (25 mM HEPES, pH 7.8, 2 mM CaCl2, 1 mM MgCl2, 125 mM NaCl, 0.1% BSA) (Sigma). A 0.4 nM stock of ligand, [125I]-IL-8 (NEN) can be prepared in the CXCR1 assay buffer. 20× stock solutions of test compounds can be prepared in DMSO (Sigma). A 6× stock solution of IL-8 (R&D) can be prepared in CXCR2 assay buffer. The above solutions can be added to a 96-well assay plate (PerkinElmer) as follows: 10 μl test compound or DMSO, 40 μl CXCR1 assay buffer or IL-8 stock, 100 μl of reaction mixture, 50 μl of ligand stock (Final [Ligand]=0.1 nM). The assay plates can be shaken for 5 minutes on plate shaker, then incubated for 8 hours before cpm/well can be determined in Microbeta Trilux counter (PerkinElmer). % Inhibition of Total binding-NSB (250 nM IL-8) can be determined for IC50 values.

For the molecule `CC[C@@H](Nc1nc2nonc2nc1Nc1cccc(C(=O)N(C)C)c1O)c1ccc(C)o1` [Compound 4], the Ki stood at 196 nM in assay [1] and 4220 nM in assay [2].

For orientation: Ki means a measure of affinity in units of concentration, obtained from inhibition or displacement. A lower Ki goes with higher affinity.
